Source: the SangsterLogP compilation

Columns and labels:
[1] = method code SF-HPLC, from DOI: 10.1016/0378-5173(85)90010-9; details: pH 4.0
[2] = not given; remark: listed apart in the source
[3] = method code SF, from DOI: 10.1016/0360-3016(89)90912-7, PMID: 2703384; details: pH 7.4
[4] = not given; remark: listed apart in the source
[5] = method code SF-AS, from DOI: 10.1021/j150653a049
[6] = not given; remark: listed apart in the source
[7] = method code SF, from Dai, J-Y.; Han, S.; Wang, L. (2000). Prediction of partition properties of substituted benzaldehydes using different structural parameters. Zhongguo Huanjing Kexue (China Environmental Science), …
[8] = not given; remark: listed apart in the source
[9] = method code SF-AS, from DOI: 10.1016/0378-5173(82)90004-7; details: pH 3.0
[10] = method code SF, from DOI: 10.1039/p29920000723
[11] = not given; remark: listed apart in the source
[12] = method code SF-AS, from DOI: 10.1021/jm00254a011, PMID: 4845376
[13] = method code SF-AS, from DOI: 10.1246/bcsj.63.3542
[14] = method code SF-GLC, from DOI: 10.1080/03086648508073361
[15] = not given; remark: listed apart in the source
[16] = not given; remark: listed apart in the source
[17] = from Bazaco, J.; Coca, C. (1989). Relation between the partition coefficient (Log Pow) and capacity factor (Log k') derived from reversed-phase HPLC of a series of benzaldehyde derivatives. Ciencia e …
[18] = method code SF-GLC, from DOI: 10.1021/je00020a050
[19] = method code SF, from DOI: 10.1034/j.1399-3011.2003.00037.x, PMID: 12492901; details: pH 2.0
[20] = method code SF-HPLC, from DOI: 10.1016/0378-5173(82)90005-9; details: pH 3.0
[21] = not given; remark: listed apart in the source
[22] = not given; remark: listed apart in the source
[23] = method code SF-AS, from DOI: 10.1111/j.1440-1681.1976.tb00621.x, PMID: 10116
[24] = method code SF, from DOI: 10.1016/0360-3016(92)90876-j, PMID: 1735696; details: pH 7.4
[25] = not given; remark: listed apart in the source
[26] = not given; remark: listed apart in the source
[27] = method code SF, from DOI: 10.1002/jps.2600830714, PMID: 7965679
[28] = method code SF-AS, from DOI: 10.1002/ps.2780110406
[29] = method code SF-AS, from DOI: 10.1248/cpb.35.377
[30] = not given; remark: listed apart in the source
[31] = method code G-HPLC, from DOI: 10.6028/nbs.ir.81-2406
[32] = method code SF-AS, from DOI: 10.1248/cpb.40.925
[33] = not given; remark: listed apart in the source

`O=C(Nc1ccccc1)n1cc(F)c(=O)[nH]c1=O` showed a logD [1] of 1.5.
For `OCc1ccc(Br)cc1`, the logP was 2.15.
Work on `CC(C(=O)O)c1ccc(C(=O)c2cccs2)cc1` (stereo not given) yielded a logP [2] of 2.83.
With `O=C(O)c1ccc(I)cc1` the logP [2] was 3.13.
`O=[N+]([O-])c1nccn1CC(F)CO` (stereo not given) gave a logD [3] of -0.38.
`O=[N+]([O-])c1cn(CC(F)CO)cn1` (stereo not given) showed a logD [3] of -0.8.
For `O=C(O)c1snc(Cl)c1Cl`, the logP [4] was 1.44.
Work on `OCc1cc(Cl)cc(Cl)c1O` yielded a logP [5] of 2.3.
Work on `OCc1ccccc1F` yielded a logP of 1.3.
For `Cc1ccc(O)cc1`, the logP [6] was 2.03.
Work on `CCOc1ccc(C=O)cc1` yielded a logP [7] of 2.09.
Work on `Cc1ccc(O)c(C)c1` yielded a logP [8] of 2.48.
For `CC(C)=CCC1(C(C)C)C(=O)NC(=O)NC1=O`, the logD [9] was 2.23.
`CC(C)(C)O` showed a logP [8] of 0.34.
With `O=C(O)c1cc(C(F)(F)F)nc2ccccc12` the logP [4] was 3.14.
`O=Cc1ccc(Br)cc1` gave a logP [7] of 2.75.
For `CCS(=O)(=O)NC(=O)CCc1ccccc1`, the logP [10] was 1.67.
For `O=S1CCCC1`, the logP [11] was -0.96.
Work on `CC1(C)C(=O)NC(=O)NC1=O` yielded a logD [9] of -0.44.
`CC(C)Oc1ccc(C=O)cc1` showed a logP [7] of 2.3.
In the case of `CC(C)NC(=O)C=Cc1ncc([N+](=O)[O-])s1`, the logP [12] is reported as 1.76.
Molecule `CN(C)C(=O)n1cc(F)c(=O)[nH]c1=O` has a logD [1] of -0.37.
Molecule `CN(C)C(=O)c1ccccn1` has a logP [13] of -0.45.
With `CN(C)P(=O)(N(C)C)N(C)C` the logP [14] was 0.09.
`CCCCC(O)CCC` (stereo not given) showed a logP [15] of 2.68.
Molecule `CC(C)=CCC1(C(C)(C)C)C(=O)NC(=O)NC1=O` has a logD [9] of 2.56.
Work on `CN(C)C(=O)c1cnccn1` yielded a logP [13] of -0.8.
For `OC1CCCCC1`, the logP [16] was 1.36.
In the case of `O=[N+]([O-])c1ccc(N2CCNC2=S)o1`, the logP [12] is reported as 0.98.
Work on `CCOc1cc(C=O)ccc1O` yielded a logP [17] of 1.58.
`COc1cc(Cl)c(Cl)c(Cl)c1OC` showed a logP [18] of 4.01.
For `CCCCC1C(=O)N(c2ccccc2)N(c2ccc(O)cc2)C1=O` (stereo not given), the logP [11] was 3.04.
With `O=Cc1ccc(F)cc1` the logP [17] was 1.54.
In the case of `COc1ccc(Cl)c(Cl)c1Cl`, the logP [18] is reported as 4.03.
`Cc1c2ccccc2c(C)c2c1ccc1ccccc12` gave a logP [16] of 6.16.
`Nc1c(F)cc(F)cc1F` gave a logP of 1.81.
`O=C(O)CNc1ccc([N+](=O)[O-])cc1[N+](=O)[O-]` gave a logD [19] of 1.56.
With `O=C1NC(=O)C2(CCCCCCC2)C(=O)N1` the logD [20] was 1.79.
Molecule `CNC(=S)NCC(F)(F)C(F)(F)C(F)(F)F` has a logP [10] of 2.39.
With `COc1cc2c(c(OC)c1OC)-c1ccc(O)c(=O)cc1[C@@H](NC(C)=O)CC2` the logP [21] was 1.03.
In the case of `Cc1ccc(Cl)cc1Cl`, the logP [22] is reported as 4.09.
`CC(C)C(Br)C(=O)NC(N)=O` (stereo not given) gave a logP [23] of 1.14.
`CN(O)C(=O)Cn1ccnc1[N+](=O)[O-]` showed a logD [24] of -0.74.
Work on `COc1c(Cl)c(Cl)c(Cl)c(Cl)c1OC` yielded a logP [18] of 4.86.
With `Cc1cc(=O)n(-c2ccc(Cl)cc2)cc1C(=O)O` the logP [4] was 4.1.
With `Oc1ccc(Cl)cc1Cl` the logP [6] was 3.12.
Molecule `ClC(Cl)=C(Cl)C(Cl)=C(Cl)Cl` has a logP [25] of 4.74.
Work on `Oc1cc(Cl)c(Cl)c(Cl)c1O` yielded a logP [22] of 3.56.
With `CNc1cnccn1` the logP [13] was 0.56.
With `OCc1cc(Cl)ccc1O` the logP [5] was 1.44.
`NC(=S)Nc1cccc2ccccc12` gave a logP [26] of 1.66.
With `CC(=O)OCC1OC(OC(C)=O)C(NC(=O)C(C)NC(=O)N(CCCl)N=O)C(OC(C)=O)C1OC(C)=O` (stereo not given) the logP [27] was 0.71.
With `CCOP(=S)(OCC)Oc1cccc(F)n1` the logP [28] was 3.51.
`N#CCCCCOC(=O)c1ccccc1` gave a logP [10] of 2.05.
With `OCc1c(Cl)cccc1Cl` the logP [29] was 2.02.
`Cn1ccc(=O)c(O)c1` showed a logP [30] of -0.7.
For `Fc1ccc(CCl)cc1`, the logP [31] was 2.73.
With `CCN(CC)P(=O)(N(C)C)N(C)C` the logP [14] was 0.66.
With `OCc1ccccc1Cl` the logP [29] was 1.77.
`COc1ccccc1C=O` showed a logP [17] of 1.72.
With `CC(C)n1ccc(=O)c(O)c1` the logP [30] was -0.02.
Work on `OCc1ccccc1O` yielded a logP [5] of 0.56.
Molecule `CCC(Br)(CC)C(=O)NC(N)=O` has a logP [23] of 1.54.
For `CC(=O)N[C@@H](Cc1c[nH]c2ccccc12)C(=O)O`, the logD [19] was 0.57.
Work on `O=NN(CCCl)C(=O)NCC(=O)O` yielded a logP [27] of -1.25.
`O=c1cc(-c2ccccc2)oc2ccc3ccccc3c12` gave a logP [26] of 4.94.
`CC(C)C(Cl)C(=O)NC(N)=O` (stereo not given) showed a logP [23] of 1.
Molecule `CC(=O)OCC(=O)[C@H]1CC[C@H]2[C@@H]3CCC4=CC(=O)CC[C@]4(C)[C@H]3CC[C@]12C` has a logP [21] of 3.08.
With `CCN(CC)P(=O)(N(CC)CC)N1CCCC1` the logP [14] was 2.39.
For `Oc1c(O)c(Cl)c(Cl)c(Cl)c1Cl`, the logP [22] was 4.12.
Molecule `COCC(F)Cn1cnc([N+](=O)[O-])c1` (stereo not given) has a logD [3] of -0.04.
In the case of `O=NN(CCCl)C(=O)N[C@@H](Cc1ccccc1)C(=O)O`, the logP [27] is reported as -0.28.
Work on `CCCCC(C)O` (stereo not given) yielded a logP [15] of 1.76.
Molecule `CCOP(=O)(NC(C)C)Oc1ccc(SC)c(C)c1` (stereo not given) has a logP [28] of 3.18.
With `O=C(CCCn1ccnc1[N+](=O)[O-])NO` the logD [24] was -1.11.
In the case of `Nc1ccccc1C(=O)O`, the logP [29] is reported as 1.13.
In the case of `Clc1ccc(-c2ccccc2)cc1Cl`, the logP [8] is reported as 5.11.
In the case of `CC(C)(C)C1CCC(O)CC1` (stereo not given), the logP [15] is reported as 3.09.
Work on `CONC(=O)CCCn1ccnc1[N+](=O)[O-]` yielded a logD [24] of -0.74.
With `Cc1cc(C)c(O)c(C)c1` the logP [31] was 2.73.
`Clc1cc(Cl)c(Cl)c(Cl)c1` gave a logP [28] of 4.68.
For `CCc1cc(CC)c(OC)c(C(=O)O)c1OC`, the logP [2] was 2.98.
`COC(=O)c1c[nH]c2ccccc12` gave a logP [32] of 2.57.
Work on `CCCn1ccc(=O)c(O)c1` yielded a logP [30] of -0.17.
Molecule `ClCc1cccc(CCl)c1` has a logP [25] of 2.72.
With `CCCCNC(=O)n1cc(F)c(=O)[nH]c1=O` the logD [1] was 1.44.
`NC(=O)c1ccccc1Cl` showed a logP [33] of 0.94.
Work on `Nc1nc(C=Cc2ccc([N+](=O)[O-])o2)no1` yielded a logP [12] of 1.3.
In the case of `Cc1c(C)c(C)c(C)c(C)c1C`, the logP [31] is reported as 4.61.
Molecule `CCCC(C)=O` has a logP [16] of 0.95.
`Brc1ccsc1Br` showed a logP [26] of 3.53.
Work on `COC(=O)c1cc2ccccc2o1` yielded a logP [32] of 2.53.
Molecule `CSc1ccc(C=C2C(C)=C(CC(=O)O)c3cc(F)ccc32)cc1` has a logP [11] of 4.76.
For `Oc1ccccc1O`, the logP [6] was 1.1.
Molecule `COc1ccccn1` has a logP [33] of 1.23.
`COC(=O)c1ccc(Br)o1` showed a logP [32] of 1.84.
In the case of `Nc1ccc(Cl)cc1Cl`, the logP [25] is reported as 2.64.
Molecule `c1ccc2cc3c(ccc4ccccc43)cc2c1` has a logP [33] of 5.93.
For `On1nc2ccccc2n1`, the logP [21] was 0.69.
Work on `O=C(O)c1cc([N+](=O)[O-])cc([N+](=O)[O-])c1` yielded a logD [19] of 1.75.
